Assay results reported in article PMC6748986, “Potent modulation of the CepR quorum sensing receptor and virulence in a Burkholderia cepacia complex member using non-native lactone ligands” (Scientific Reports, 2019).
Positions count from the first letter of the chain named. Like-named read-outs stand apart in the source and are kept apart here.

Tests used:
[1] = biological target: T1, CepR (Burkholderia multivorans, UniProt Q93PF7); test: CepR antagonism in B. multivorans cepI::lacZ reporter (Bm-reporter), competition against C8-AHL; format: cell-based; settings: for IC50: read-out: IC50; for Inh% (100-Act%): screening conc. 100 μM
T1 sequence (Q93PF7 1-239): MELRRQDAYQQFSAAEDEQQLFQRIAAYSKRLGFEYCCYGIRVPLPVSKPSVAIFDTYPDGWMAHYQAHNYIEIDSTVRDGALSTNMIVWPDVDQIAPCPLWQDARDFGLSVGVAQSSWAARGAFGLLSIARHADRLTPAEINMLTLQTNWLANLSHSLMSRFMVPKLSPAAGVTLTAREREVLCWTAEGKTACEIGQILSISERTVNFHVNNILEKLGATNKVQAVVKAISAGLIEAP
Excerpt: We next sought to assess if the CepR modulators identified in the Ec-reporter maintained their activities in a member of the Bcc. For these studies, we generated a B. multivorans cepI::lacZ reporter organism (Bm-reporter) using standard allelic exchange methods (see Methods). Along with B. cenocepacia, B. multivorans is one of the most commonly isolated Bcc members[6],[44]. We note that small molecules must contend with a different cellular environment in the native organism relative to E. coli[48]; however, as both CepR and the cepI promoter are highly conserved among Bcc species (Fig. S3), we reasoned that the majority of compounds identified in the Ec-reporter (containing B. cenocepacia versions of the cepI promoter and the cepR gene) would maintain their relative activity profiles in CepR in B. multivorans. […] Similar to the Ec-reporter, CepR binding to the cepI promoter then induces β-galactosidase production, allowing for the quantitation of CepR activity. Using the Bm-reporter organism, we observed robust activity for CepR in response to C8-AHL (EC50 = 0.7 nM, Table 3).
The B. multivorans cepI::lacZ strain was used to obtain dose-response data for CepR in response to synthetic AHLs. Overnight cultures of B. multivorans cepI::lacZ were grown in LB medium at 37 °C with shaking (225 rpm). Aliquots (200 μL) of a 1:10 dilution of this overnight culture were plated into 96-well plates containing varying concentrations of compound, and then grown for 4 h at 37 °C with shaking (225 rpm). β-galactosidase production was measured as described above for E. coli, with the following changes: permeabilized cells were incubated at 25 °C with substrate CPRG for ~10 min until positive control wells developed a deep red color. For agonism assays, synthetic compound was screened alongside and compared to the native ligand, C8-AHL (100 μM). For antagonism assays, the concentration of native ligand utilized was 5 nM (approximately equal to twice its EC50 value).

[2] = biological target: T2, CepR (Burkholderia cenocepacia, UniProt B4EMD0); test: CepR agonism in E. coli β-galactosidase reporter (Ec-reporter) JLD271 [pJN105-cepR + pSC11-cepI]; format: cell-based, B. cenocepacia; settings: for Maximal Activation (%): activity for 100 μM C8-AHL set to 100%, error ±10%; for Act%: Table S2, Ec-reporter, screening conc. 100 μM
T2 sequence (B4EMD0 1-239): T1 sequence (Q93PF7 1-239) with R5W, S51A, H69Q, S84N, Q95R, A97D
How it was run: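 E. coli JLD271 (ΔsdiA) carrying arabinose-inducible CepR (27 mM L-arabinose) and cepI-lacZ fusion, grown 4 h with compound; β-galactosidase measured by CPRG cleavage at 37 °C (~30 min), normalized to OD600. Agonism compared with C8-AHL at 100 μM; screen at 100 μM or solubility limit, then dose-response; ≥3 trials.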

[3] = biological target: T2, CepR; test: CepR antagonism in E. coli β-galactosidase reporter (Ec-reporter), competition against C8-AHL; format: cell-based, B. cenocepacia; settings: for Inh% (100-Act%): screening conc. 100 μM
How it was run: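 CepR antagonism was measured in E. coli JLD271 (∆sdiA) carrying pJN105-cepR, which expresses B. cenocepacia CepR from an arabinose-inducible pBAD promoter, and pSC11-cepI, which fuses lacZ to the cepI promoter. Induced cells were grown 4 h with compound and 10 nM C8-AHL. β-Galactosidase activity was then read by CPRG cleavage at 37 °C after Z Buffer permeabilization.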

[4] = Bm-reporter, against 5 nM C8-AHL
[5] = Ec-reporter, against 10 nM C8-AHL
[6] = Table S3, Ec-reporter, against 10 nM C8-AHL

SMILES	Maximal Inhibition (%) [1, 4]	IC50 [1, 4]	CepR agonism in words ([2]; Ec-reporter)	Maximal Activation (%) ([2]; Ec-reporter)	Act% [2]	Maximal Inhibition (%) [3, 5]	Inh% (100-Act%) ([1]; Table S5, Bm-reporter)	IC50 [3, 5]	IC50 ([3]; Table S3, Ec-reporter)	Inh% (100-Act%) [3, 6]	CepR antagonism in words ([1]; Bm-reporter)	IC50 ([1]; Table S5, Bm-reporter)
CCCC(=O)CC(=O)N[C@H]1CCOC1=O [3’O-C6-AHL, reference compound]	85%	800 nM										
CCCCCCS(=O)(=O)N[C@H]1CCOC1=O [Compound A11]			failed to activate CepR	−5.0%	-5.0%	78%	84%					
CCCC(=O)N[C@H]1CCOC1=O [Compound C4-AHL, butanoyl L-homoserine lactone, reference compound]	76%	250 nM		23%	23%	58%		20 µM				
O=C(Cc1cccc(Cl)c1)N[C@H]1CCOC1=O [Compound C6]					3.2%	66%	98%	39 µM				
O=C(Cc1ccccc1Cl)N[C@H]1CCOC1=O [Compound C7]					0.3%	89%	95%	5.9 µM				
O=C(Cc1ccccc1Br)N[C@H]1CCOC1=O [Compound C9]					0.3%		99%		40 µM	52%		
O=C(Cc1ccccc1I)N[C@H]1CCOC1=O [Compound C12]					-0.4%		104%		22 µM	72%		
O=C(Cc1ccc([N+](=O)[O-])cc1)N[C@H]1CCOC1=O [Compound C13]	96%	3600 nM			1.1%				6.7 µM	79%	bring reporter activity down to nearly zero	
O=C(Cc1cccc([N+](=O)[O-])c1)NC1CCOC1=O (stereo not shown) [Compound C14]	54%	620 nM			16%	46%		1.4 µM				
O=C(Cc1ccccc1[N+](=O)[O-])N[C@H]1CCOC1=O [Compound C15]					1.4%		95%			79%		
N#Cc1ccc(CC(=O)N[C@H]2CCOC2=O)cc1 [Compound E4]					0.2%		97%			29%		≥ 4500 nM
N#Cc1cccc(CC(=O)N[C@H]2CCOC2=O)c1 [Compound E5]	43%				4.9%	81%		2.7 µM				
CSc1cccc(CC(=O)NC2CCOC2=O)c1 (stereo not shown) [Compound E7]	97%	4000 nM			5.9%	76%		3.1 µM			bring reporter activity down to nearly zero	
O=C(Cc1ccc(Cl)c(Cl)c1)N[C@H]1CCOC1=O [Compound E11]					1.9%		94%			59%		
O=C(Cc1cccc2ccccc12)N[C@H]1CCOC1=O [Compound E13]	13%				2.5%				4.9 µM	50%		
